Experiment: Antioxidant activity (Trolox equivalent) of materials substituted for glycerol

SMILES: OCC(O)CO [Glycerol, glycerol]
- Antioxidant (Trolox equivalent μM/g): 0 µM/g

From patent US11570982B2, “Systems and methods for natural cryoprotectants for preservation of cells” (Membrane Protective Technologies, Inc., priority 2016, dated 2023)
